Assay results: ChEMBL document CHEMBL1201862, “PubChem BioAssay data set” (2004)
Calls of active or inactive are those of the source.

Key:
[1] = test system: Streptococcus; test: Group A Streptococcus viability loss, dose response, counter-screen for streptokinase expression inhibitor project, luminescence, BacTiterGlo (AID 1915); assay type: functional, organism-based;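 further: potency for reduction of bacterial viability or growth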
[2] = test system: Streptococcus sp. 'group A'; test: growth inhibition of control SK(-) GAS strain, dose response, counter-screen for streptokinase expression inhibitor project, luminescence, kanamycin, BacTiterGlo, confirmation (AID 1900); assay type: functional, organism-based
[3] = target: T1, Coagulation factor XII (Homo sapiens, UniProt P00748); test: Factor XIIa Dose Response Confirmation from Single Well HTS. [Related pubchem assays (depositor defined):AID701]; assay type: functional
T1 sequence (P00748 whole entry): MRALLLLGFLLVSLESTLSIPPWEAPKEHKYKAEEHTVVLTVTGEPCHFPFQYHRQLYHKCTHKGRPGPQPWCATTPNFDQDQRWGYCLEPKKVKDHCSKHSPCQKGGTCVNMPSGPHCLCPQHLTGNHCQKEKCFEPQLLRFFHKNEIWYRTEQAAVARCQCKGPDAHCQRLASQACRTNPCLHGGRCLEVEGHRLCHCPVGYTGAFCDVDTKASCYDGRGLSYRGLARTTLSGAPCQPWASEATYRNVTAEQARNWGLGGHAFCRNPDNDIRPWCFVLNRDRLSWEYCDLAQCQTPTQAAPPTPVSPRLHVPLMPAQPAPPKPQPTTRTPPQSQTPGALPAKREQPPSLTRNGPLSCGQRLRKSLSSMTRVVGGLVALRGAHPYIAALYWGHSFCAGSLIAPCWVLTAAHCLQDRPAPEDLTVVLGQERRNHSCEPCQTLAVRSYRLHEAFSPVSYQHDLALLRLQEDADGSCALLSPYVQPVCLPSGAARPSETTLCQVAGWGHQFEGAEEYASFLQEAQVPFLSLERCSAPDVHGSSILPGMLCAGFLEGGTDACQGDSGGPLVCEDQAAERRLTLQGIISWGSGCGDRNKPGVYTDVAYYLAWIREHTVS

[4] = target: T2, Intestinal-type alkaline phosphatase (Homo sapiens, UniProt P09923); test: human intestinal alkaline phosphatase activators, dose response, biochemical, luminescence, uHTS hits (AID 463120); assay type: functional
[5] = target: T2, Intestinal-type alkaline phosphatase; test: Dose Response confirmation of uHTS hits from a small molecule inhibitors of human intestinal alkaline phosphatase via a luminescent assay. [Related pubchem assays (depositor defined):AID2544, AID2574]; assay type: functional
[6] = target: Hexokinase-1 (Homo sapiens, UniProt P19367); test: hexokinase 1 activators, dose response, selectivity assay for HKDC1 activator project, biochemical (AID 504762); assay type: functional
[7] = target: T3, Hexokinase HKDC1 (Homo sapiens, UniProt Q2TB90); test: HKDC1 hexokinase activators, dose response, biochemical, W721R variant (AID 504730); assay type: functional
T3 sequence (Q2TB90 whole entry): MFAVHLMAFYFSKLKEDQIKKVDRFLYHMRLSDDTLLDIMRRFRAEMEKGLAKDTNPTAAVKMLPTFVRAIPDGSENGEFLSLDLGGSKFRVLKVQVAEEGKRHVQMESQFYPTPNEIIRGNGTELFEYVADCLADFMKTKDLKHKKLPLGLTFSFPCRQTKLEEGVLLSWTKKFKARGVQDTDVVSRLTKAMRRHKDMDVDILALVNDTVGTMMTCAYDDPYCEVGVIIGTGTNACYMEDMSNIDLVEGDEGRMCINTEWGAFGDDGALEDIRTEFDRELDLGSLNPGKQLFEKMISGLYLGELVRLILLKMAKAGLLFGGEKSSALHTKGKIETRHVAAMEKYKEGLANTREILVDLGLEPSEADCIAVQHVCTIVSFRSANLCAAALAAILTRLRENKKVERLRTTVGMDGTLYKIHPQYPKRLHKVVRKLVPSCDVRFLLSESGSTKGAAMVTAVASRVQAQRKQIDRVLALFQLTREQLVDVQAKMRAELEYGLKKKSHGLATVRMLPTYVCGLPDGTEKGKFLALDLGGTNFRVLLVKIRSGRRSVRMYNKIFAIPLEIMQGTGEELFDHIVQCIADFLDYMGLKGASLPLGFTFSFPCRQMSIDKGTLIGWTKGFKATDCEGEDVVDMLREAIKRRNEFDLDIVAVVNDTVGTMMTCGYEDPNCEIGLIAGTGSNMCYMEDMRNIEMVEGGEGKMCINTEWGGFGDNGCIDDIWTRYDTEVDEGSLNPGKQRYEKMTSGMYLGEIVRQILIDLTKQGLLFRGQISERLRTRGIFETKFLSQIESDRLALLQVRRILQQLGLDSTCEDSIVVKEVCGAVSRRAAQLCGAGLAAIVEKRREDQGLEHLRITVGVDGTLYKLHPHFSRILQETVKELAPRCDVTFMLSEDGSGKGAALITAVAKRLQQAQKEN

[8] = target: T4, Dual specificity protein phosphatase 3 (Homo sapiens, UniProt P51452); test: VHR1 phosphatase inhibitors, primary screen, biochemical, absorbance, uHTS (AID 1654)
[9] = target: T5, Dual specificity protein phosphatase 6 (Rattus norvegicus, UniProt Q64346); test: MKP-3 phosphatase inhibitors, primary screen, biochemical, rat enzyme, in vitro (AID 425)
T5 sequence (Q64346 whole entry): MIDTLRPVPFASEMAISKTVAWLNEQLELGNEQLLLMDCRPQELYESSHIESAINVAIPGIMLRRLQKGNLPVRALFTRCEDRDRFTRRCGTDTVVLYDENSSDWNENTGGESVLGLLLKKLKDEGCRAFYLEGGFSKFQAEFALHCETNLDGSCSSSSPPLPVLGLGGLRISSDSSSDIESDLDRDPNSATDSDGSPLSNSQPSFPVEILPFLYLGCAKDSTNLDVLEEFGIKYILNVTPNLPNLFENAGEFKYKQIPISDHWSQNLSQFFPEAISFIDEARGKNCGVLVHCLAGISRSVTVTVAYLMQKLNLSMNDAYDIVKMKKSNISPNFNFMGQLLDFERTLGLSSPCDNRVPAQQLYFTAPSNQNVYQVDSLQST

[10] = target: T4, Dual specificity protein phosphatase 3; test: VHR1 phosphatase inhibitors, biochemical (AID 1878)

T4 sequence (P51452 whole entry): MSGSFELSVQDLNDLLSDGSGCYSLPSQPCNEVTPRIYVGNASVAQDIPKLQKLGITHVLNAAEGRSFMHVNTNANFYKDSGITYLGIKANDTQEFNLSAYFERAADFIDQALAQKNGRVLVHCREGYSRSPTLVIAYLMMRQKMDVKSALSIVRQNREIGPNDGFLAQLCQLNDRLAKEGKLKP
T2 sequence (P09923 whole entry): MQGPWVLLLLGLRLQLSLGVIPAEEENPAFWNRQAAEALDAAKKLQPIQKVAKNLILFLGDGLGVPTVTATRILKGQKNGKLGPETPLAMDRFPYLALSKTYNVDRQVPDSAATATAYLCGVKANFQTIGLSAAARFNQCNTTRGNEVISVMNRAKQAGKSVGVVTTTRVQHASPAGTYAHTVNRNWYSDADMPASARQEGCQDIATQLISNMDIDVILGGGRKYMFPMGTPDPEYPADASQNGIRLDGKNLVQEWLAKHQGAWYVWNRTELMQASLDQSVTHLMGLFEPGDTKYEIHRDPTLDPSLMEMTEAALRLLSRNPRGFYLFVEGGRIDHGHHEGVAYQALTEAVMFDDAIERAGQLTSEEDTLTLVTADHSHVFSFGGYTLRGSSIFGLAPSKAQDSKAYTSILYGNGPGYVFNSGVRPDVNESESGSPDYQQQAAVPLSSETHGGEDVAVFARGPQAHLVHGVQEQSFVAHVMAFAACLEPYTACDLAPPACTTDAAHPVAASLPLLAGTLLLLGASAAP
Hexokinase-1, sequence (P19367 whole entry): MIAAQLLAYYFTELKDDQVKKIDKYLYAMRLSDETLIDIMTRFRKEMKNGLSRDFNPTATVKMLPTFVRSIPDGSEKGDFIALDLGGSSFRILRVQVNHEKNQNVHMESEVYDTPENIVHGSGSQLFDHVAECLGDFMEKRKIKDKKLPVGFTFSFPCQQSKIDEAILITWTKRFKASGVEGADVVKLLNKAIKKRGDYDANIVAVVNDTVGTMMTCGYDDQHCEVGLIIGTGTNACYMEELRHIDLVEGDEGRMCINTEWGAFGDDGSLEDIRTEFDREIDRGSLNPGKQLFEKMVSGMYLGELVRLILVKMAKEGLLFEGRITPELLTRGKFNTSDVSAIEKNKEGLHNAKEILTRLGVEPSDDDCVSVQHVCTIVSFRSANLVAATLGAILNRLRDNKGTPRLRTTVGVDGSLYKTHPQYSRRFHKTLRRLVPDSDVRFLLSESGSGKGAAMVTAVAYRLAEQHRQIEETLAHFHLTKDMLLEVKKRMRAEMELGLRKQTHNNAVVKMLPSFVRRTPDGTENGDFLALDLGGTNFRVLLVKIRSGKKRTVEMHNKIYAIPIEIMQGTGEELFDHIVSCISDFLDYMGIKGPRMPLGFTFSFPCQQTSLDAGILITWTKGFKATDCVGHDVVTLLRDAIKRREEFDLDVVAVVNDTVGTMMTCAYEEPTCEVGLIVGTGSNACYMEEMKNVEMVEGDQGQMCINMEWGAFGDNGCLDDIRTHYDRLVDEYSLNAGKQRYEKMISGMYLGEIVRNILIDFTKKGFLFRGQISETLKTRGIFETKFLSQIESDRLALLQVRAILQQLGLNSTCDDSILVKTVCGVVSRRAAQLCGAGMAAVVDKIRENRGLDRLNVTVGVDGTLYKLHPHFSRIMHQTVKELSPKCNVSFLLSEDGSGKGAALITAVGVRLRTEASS

How did the EC50 [1] turn out when O=C(Oc1ccc(Cl)c2cccnc12)c1ccco1 was run?
The EC50 was 11.6 µM (active).

What about the EC50 [2] of the same molecule?
Its EC50 is 3.93 µM (active).

What about the IC50 [3] of the same molecule?
The IC50 was 21.6 µM (active).

With COc1cccc(-c2nc(CS(=O)(=O)CC(=O)Nc3cc(OC)ccc3OC)c(C)o2)c1 as the molecule, how does the EC50 [4] read?
The EC50 was > 100 µM (inactive).

And the IC50 [5]?
Its IC50 is > 100 µM (inactive).

With Cn1c(-c2ccccc2)c(C(=O)CC#N)c2ccccc21 as the molecule, how does the EC50 [6] read?
The EC50 was 32 µM (inactive).

And the EC50 [7]?
The EC50 was 39.2 µM (inactive).

What does the source list for O=C(O)c1cc(-c2ccc(/C=c3\sc4nc5ccc(Br)cc5n4c3=O)o2)ccc1Cl?
IC50 [8]: 3.97 µM (active); IC50 [9]: 12 µM (active); IC50 [10]: 1.42 µM (active)
